For 28 compounds, EC50 results are on record in patent US9290451B2 (Hoffmann-La Roche Inc., priority 2011, dated 2016).

As a reminder, the EC50 is the concentration at which the effect is half-maximal.

In one test the target is human CB2 receptors (Homo sapiens (Human), UniProt P34972). The experiment in a line: cAMP assay, CHO cells expressing human CB2 receptors. The format is cell-based. Particulars: CHO cells expressing human CB2, cAMP; read-out: human CB2 EC50. Here is the method: (§1) CHO cells expressing human CB1 or CB2 receptors are seeded 17-24 hours prior to the experiment 50.000 cells per well in a black 96 well plate with flat clear bottom (Corning Costar #3904) in DMEM (Invitrogen No. 31331), 1×HT supplement, with 10% fetal calf serum and incubated at 5% CO2 and 37° C. in a humidified incubator. The growth medium was exchanged with Krebs Ringer Bicarbonate buffer with 1 mM IBMX and incubated at 30° C. for 30 min Compounds were added to a final assay volume of 100 μl and incubated for 30 min at 30° C. Using the cAMP-Nano-TRF detection kit the assay (Roche Diagnostics) was stopped by the addition of 50 μl lysis reagent (Tris, NaCl, 1.5% Triton X100, 2.5% NP40, 10% NaN3) and 50 μl detection solutions (20 μM mAb Alexa700-cAMP 1:1, and 48 μM Ruthenium-2-AHA-cAMP) and shaken for 2 h at room temperature. The time-resolved energy transfer is measured by a TRF reader (Evotec Technologies GmbH), equipped with a ND:YAG laser as excitation source. The plate is measured twice with the excitation at 355 nm and at the emission with a delay of 100 ns and a gate of 100 ns, total exposure time 10 s at 730 (bandwidth 30 nm) or 645 nm (bandwidth 75 nm), respectively. The FRET signal is calculated as follows: FRET=T730-Alexa730-P(T645-B645) with P═Ru730-B730/Ru645-B645, where T730 is the test well measured at […], T645 is the test well measured at 645 nm, B730 and B645 are the buffer controls at 730 nm and 645 nm, respectively. cAMP content is determined from the function of a standard curve spanning from 10 μM to 0.13 nM cAMP.
Sequence of human CB2 receptors (P34972 whole entry): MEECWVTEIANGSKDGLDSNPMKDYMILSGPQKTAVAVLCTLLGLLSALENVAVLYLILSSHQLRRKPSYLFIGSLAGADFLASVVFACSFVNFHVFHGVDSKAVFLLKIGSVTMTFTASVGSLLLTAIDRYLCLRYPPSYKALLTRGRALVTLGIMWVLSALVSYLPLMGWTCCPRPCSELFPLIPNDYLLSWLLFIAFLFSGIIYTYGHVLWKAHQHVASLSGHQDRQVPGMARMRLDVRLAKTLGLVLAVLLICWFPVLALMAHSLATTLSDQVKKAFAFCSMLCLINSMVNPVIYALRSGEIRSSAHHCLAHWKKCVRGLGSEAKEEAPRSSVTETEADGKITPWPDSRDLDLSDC
(§2) EC50 values were determined using Activity Base analysis (ID Business Solution, Limited). The EC50 values for a wide range of cannabinoid agonists generated from this assay for reference compounds were in agreement with the values published in the scientific literature.
(In general: Cyclic AMP is a second messenger, typically raised through Gs and lowered through Gi signalling.)

In the next test the target is human CB1 receptors (Homo sapiens (Human), UniProt P21554). The experiment in a line: cAMP assay, CHO cells expressing human CB1 receptors. The format is cell-based. Particulars: CHO cells expressing human CB1, cAMP; read-out: human CB1 EC50. As to the method: as §1, §2
Sequence of human CB1 receptors (P21554 whole entry): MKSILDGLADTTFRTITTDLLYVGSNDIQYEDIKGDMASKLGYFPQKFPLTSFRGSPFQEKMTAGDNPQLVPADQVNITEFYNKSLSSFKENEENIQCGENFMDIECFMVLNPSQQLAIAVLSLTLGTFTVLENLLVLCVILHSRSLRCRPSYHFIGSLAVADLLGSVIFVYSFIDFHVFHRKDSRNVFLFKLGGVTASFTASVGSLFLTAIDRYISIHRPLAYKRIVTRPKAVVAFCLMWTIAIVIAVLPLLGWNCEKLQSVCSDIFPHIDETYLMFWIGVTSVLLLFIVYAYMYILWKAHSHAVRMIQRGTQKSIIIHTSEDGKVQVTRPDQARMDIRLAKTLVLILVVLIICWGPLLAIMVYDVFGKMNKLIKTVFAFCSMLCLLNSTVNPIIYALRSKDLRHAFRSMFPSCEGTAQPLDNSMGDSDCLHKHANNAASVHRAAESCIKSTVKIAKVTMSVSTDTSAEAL

With `Cc1ccc(C(=O)N2CCCCC2)nc1S(=O)(=O)N1CCCCC1` [Example 25, [5-Methyl-6-(piperidine-1-sulfonyl)-pyridin-2-yl]-piperidin-1-yl-methanone], the EC50 at human CB2 receptors was 291 nM; at human CB1 receptors, more than 10000 nM.
In the case of `CC1CC(NC(=O)c2cccc(-c3cccc(Cl)c3)n2)CCO1` (centres unmarked) [Example 26, 6-(3-Chloro-phenyl)-pyridine-2-carboxylic acid (2-methyl-tetrahydro-pyran-4-yl)-amide], the figures for the EC50 at human CB2 receptors and at human CB1 receptors were 691 nM and more than 10000 nM, respectively.
The matching figures for `COC(=O)C(C)(C)NC(=O)c1ccc(N2CCCC2)c(OCC2CC2)n1` [Example 27, 2-[(6-Cyclopropylmethoxy-5-pyrrolidin-1-yl-pyridine-2-carbonyl)-amino]-2-methyl-propionic acid methyl ester]: 4.6 nM and more than 10000 nM.
For `Cc1cc(C(C)(C)NC(=O)c2cccc(-c3cccc(Cl)c3)n2)on1` [Example 28, 6-(3-Chloro-phenyl)-pyridine-2-carboxylic acid [1-methyl-1-(3-methyl-isoxazol-5-yl)-ethyl]-amide] the same measures were 564 nM and more than 10000 nM.
For `CCC(CC)(CO)NC(=O)c1cccc(-c2cccc(Cl)c2)n1` [Example 29, 6-(3-Chloro-phenyl)-pyridine-2-carboxylic acid (1-ethyl-1-hydroxymethyl-propyl)-amide] the same measures were 324 nM and more than 10000 nM.
Regarding `O=C(NC1CCCOC1)c1cccc(-c2cccc(Cl)c2)n1` (centres unmarked) [Example 30, 6-(3-Chloro-phenyl)-pyridine-2-carboxylic acid (tetrahydro-pyran-3-yl)-amide], the EC50 on human CB2 receptors is 658 nM; on human CB1 receptors, more than 10000 nM.
Regarding `O=C(c1ccc(N2CCCC2)c(OCC2CC2)n1)N1CC2(COC2)C1` [Example 31, (6-Cyclopropylmethoxy-5-pyrrolidin-1-yl-pyridin-2-yl)-(2-oxa-6-aza-spiro[3.3]hept-6-yl)-methanone], the EC50 is 423 nM at human CB2 receptors and more than 10000 nM at human CB1 receptors.
For the compound `CC(C)C[C@H](NC(=O)c1ccc(N2CCCC2C)c(OCC2CC2)n1)C(N)=O` (stereo partly drawn) [Example 32, 6-Cyclopropylmethoxy-5-(2-methyl-pyrrolidin-1-yl)-pyridine-2-carboxylic acid ((S)-1-carbamoyl-3-methyl-butyl)-amide], the EC50 on human CB2 receptors stood at 1.55 nM; on human CB1 receptors, 1390 nM.
Regarding `Cc1nc(C(C)(C)NC(=O)c2ccc(N3CCCC3)c(OCC3CC3)n2)no1` [Example 33, 6-Cyclopropylmethoxy-5-pyrrolidin-1-yl-pyridine-2-carboxylic acid [1-methyl-1-(5-methyl-[1,2,4]oxadiazol-3-yl)-ethyl]-amide], the values for the EC50 at human CB2 receptors and at human CB1 receptors were 23.1 nM and more than 10000 nM, respectively.
In the case of `CC(C)(NC(=O)c1ccc(C2CCOCC2)c(OCC2CC2)n1)c1nccs1` [Example 34, 6-Cyclopropylmethoxy-5-(tetrahydro-pyran-4-yl)-pyridine-2-carboxylic acid (1-methyl-1-thiazol-2-yl-ethyl)-amide], the concentration giving a half-maximal response (EC50) on human CB2 receptors was 53.7 nM; at human CB1 receptors it was more than 10000 nM.
For the compound `CC(C)(CCN1CCOCC1)NC(=O)c1ccc(N2CCCC2)c(OCC2CC2)n1` [Example 35, 6-Cyclopropylmethoxy-5-pyrrolidin-1-yl-pyridine-2-carboxylic acid (1,1-dimethyl-3-morpholin-4-yl-propyl)-amide], the EC50 at human CB2 receptors was 7.1 nM; on human CB1 receptors, more than 10000 nM.
As for `CNC(=O)C(C)(C)NC(=O)c1ccc(C)c(OCC2CC2)n1` [Example 36, 6-Cyclopropylmethoxy-5-methyl-pyridine-2-carboxylic acid (1-methyl-1-methylcarbamoyl-ethyl)-amide], the EC50 on human CB2 receptors was 974 nM; at human CB1 receptors it was more than 10000 nM.
With `O=C(NN1CCCCC1)c1cccc(C2CCOCC2)n1` [Example 37, 6-(Tetrahydro-pyran-4-yl)-pyridine-2-carboxylic acid piperidin-1-ylamide], the EC50 at human CB2 receptors is 625 nM; on human CB1 receptors it was more than 10000 nM.
On to `Cc1nc([C@H](CC2CC2)NC(=O)c2cccc(-c3cccc(Cl)c3)n2)no1` [Example 38], for which the EC50 is 99.7 nM on human CB2 receptors and more than 10000 nM at human CB1 receptors.
For `CNC(=O)C(C)(C)NC(=O)c1ccc(C2CCCC2)c(OCC2CC2)n1` [Example 40, 5-Cyclopentyl-6-cyclopropylmethoxy-pyridine-2-carboxylic acid (1-methyl-1-methylcarbamoyl-ethyl)-amide] the same measures were 30.8 nM and more than 10000 nM.
Turning to `Cc1nc(C(C)(C)NC(=O)c2cccc(-c3cccc(Cl)c3)n2)no1` [Example 41, 6-(3-Chloro-phenyl)-pyridine-2-carboxylic acid [1-methyl-1-(5-methyl-[1,2,4]oxadiazol-3-yl)-ethyl]-amide], the EC50 was 99.9 nM at human CB2 receptors and more than 10000 nM at human CB1 receptors.
The matching figures for `O=C(NN1CCCCC1)c1ccc(C2CC2)c(OCC2CC2)n1` [Example 42, 5-Cyclopropyl-6-cyclopropylmethoxy-pyridine-2-carboxylic acid piperidin-1-ylamide]: 1480 nM and more than 10000 nM.
For `CNC(=O)C(C)(C)NC(=O)c1ccc(C2CC2)c(OCC2CC2)n1` [Example 43, 5-Cyclopropyl-6-cyclopropylmethoxy-pyridine-2-carboxylic acid (1-methyl-1-methylcarbamoyl-ethyl)-amide] the same measures were 275 nM and more than 10000 nM.
For `CC(C)(NC(=O)c1ccc(C2CC2)c(OCC2CC2)n1)c1nccs1` [Example 44, 5-Cyclopropyl-6-cyclopropylmethoxy-pyridine-2-carboxylic acid (1-methyl-1-thiazol-2-yl-ethyl)-amide], the EC50 worked out at 13.5 nM at human CB2 receptors and 1610 nM on human CB1 receptors.
For the compound `Cc1nc(C(C)(C)NC(=O)c2ccc(C3CC3)c(OCC3CC3)n2)no1` [Example 45, 5-Cyclopropyl-6-cyclopropylmethoxy-pyridine-2-carboxylic acid [1-methyl-1-(5-methyl-[1,2,4]oxadiazol-3-yl)-ethyl]-amide], the results for the EC50 at human CB2 receptors and on human CB1 receptors were 87.1 nM and 1060 nM, respectively.
For `O=C(NN1CCCCC1)c1cccc(-c2ccc(Cl)cc2)n1` [Example 46, 6-(4-Chloro-phenyl)-pyridine-2-carboxylic acid piperidin-1-ylamide] the same measures were 290 nM and more than 10000 nM.
With `Cc1ccc(C(=O)NN2CCCCC2)nc1OCC1CC1` [Example 47, 6-Cyclopropylmethoxy-5-methyl-pyridine-2-carboxylic acid piperidin-1-ylamide], the EC50 at human CB2 receptors is 138 nM; at human CB1 receptors, more than 10000 nM.
In the case of `Cc1ccc(C(=O)NC(C)(C)c2ncco2)nc1-c1cccc(Cl)c1` [Example 49, 6-(3-Chloro-phenyl)-5-methyl-pyridine-2-carboxylic acid (1-methyl-1-oxazol-2-yl-ethyl)-amide], the 50% effective concentration (EC50) was 308 nM at human CB2 receptors and more than 10000 nM at human CB1 receptors.
In the case of `Cc1ccc(C(=O)NC(C)(C)c2nccs2)nc1-c1cccc(Cl)c1` [Example 50, 6-(3-Chloro-phenyl)-5-methyl-pyridine-2-carboxylic acid (1-methyl-1-thiazol-2-yl-ethyl)-amide], the results for the EC50 on human CB2 receptors and at human CB1 receptors were 133 nM and 1490 nM, respectively.
Consider `Cc1nc(C(C)(C)NC(=O)c2ccc(C)c(-c3cccc(Cl)c3)n2)no1` [Example 51, 6-(3-Chloro-phenyl)-5-methyl-pyridine-2-carboxylic acid [1-methyl-1-(5-methyl-[1,2,4]oxadiazol-3-yl)-ethyl]-amide], for which the EC50 was 127 nM on human CB2 receptors and more than 10000 nM on human CB1 receptors.
The matching figures for `Cc1ccc(C(=O)NN2CCCCC2)nc1-c1cccc(Cl)c1` [Example 52, 6-(3-Chloro-phenyl)-5-methyl-pyridine-2-carboxylic acid piperidin-1-yl-amide]: 322 nM and more than 10000 nM.
For `Cc1nc([C@H](CC2CC2)NC(=O)c2ccc(C3CCCC3)c(OCC3CC3)n2)no1` [Example 53, 5-Cyclopentyl-6-cyclopropylmethoxy-pyridine-2-carboxylic acid [(S)-2-cyclopropyl-1-(5-methyl-[1,2,4]oxadiazol-3-yl)-ethyl]-amide] the same measures were 45.7 nM and more than 10000 nM.
For `Cc1nc(C(C)(C)NC(=O)c2ccc(C3CCCC3)c(OCC3CC3)n2)no1` [Example 54, 5-Cyclopentyl-6-cyclopropylmethoxy-pyridine-2-carboxylic acid [1-methyl-1-(5-methyl-[1,2,4]oxadiazol-3-yl)-ethyl]-amide] the same measures were 11.4 nM and 2160 nM.
